Assays:
[1] = test system: wild type Columbia Arabidopsis thaliana seeds; test: Arabidopsis seed germination assay; format: in vivo
Procedure: Prior to selecting a scaffold for optimization we conducted Arabidopsis seed germination assays to establish if the hits obtained are activity in vivo. Germination experiments were performed with surface sterilized wild type Columbia Arabidopsis thaliana seeds and abi1C (the abi1-1 allele isolated in the Columbia ecotype) plated onto 0.7% agar medium containing 1/2-x MS salts, 0.5% sucrose and differing concentrations of the test compounds. After 4d of stratification at 4° C., the plates were transferred to a growth chamber under continuous illumination and evaluated after 4 days.
To establish if the in vitro potency of Opa translates into improved activity in vivo, we measured the effects of ABA, QB, AMF4, Opa and 2e on Arabidopsis seed germination at a range of concentrations to infer quantitative measures or potency. Methods similar to that described in Example 3 are followed. The percentage of germinated seeds were recorded for each chemical treatment for each concentration in quadruplicate. EC50 values denote the concentrations at which 50% of seeds have been inhibited.

tomato plants = test: thermal imaging of leaf temperature (anti-transpirant activity), tomato; format: in vivo, Lycopersicon esculentum; conditions: var. UC82, 50 μM or 100 μM spray, 24 hour intervals for 5 days
Procedure: To evaluate the efficacy of Opa in a different crop species, we performed quantitative thermal imaging in tomato plants. Tomato (var. UC82), seeds were spread on a moist filter paper and incubated in a dark chamber at room temperature for 7 days, after which they were transferred to light. After the first leaves emerged, the seedlings were transferred to soil and grown on a day night cycle; 3-4 w old plants were used for thermal imaging. Before thermal imaging, topical spraying of the plants was performed with a water solution containing ABA, quinabactin or the compound of interest, 0.5% DMSO and 0.05% Silwet-77 (Lehle seeds). 20 mL of 50 μM or 100 μM solutions were sprayed on the plants and thermal images were taken with an infrared camera (FLIR T62101) at 24 hour intervals after treatment for 5 days. […] Mock treated samples were analyzed with 8 replicates and chemical treatments with 4 replicates. […] The corrected p-values for treatment effects at all time points is summarized in the inset table and highlighted yellow if a significant increase in leaf temperature was observed.

PYR1 = target: T1, PYR1 (Arabidopsis thaliana, UniProt O49686); test: receptor-mediated PP2C inhibition assay, fluorescence based, PYR1; format: biochemical
T1 construct: made in house
T1 sequence (O49686 1-191): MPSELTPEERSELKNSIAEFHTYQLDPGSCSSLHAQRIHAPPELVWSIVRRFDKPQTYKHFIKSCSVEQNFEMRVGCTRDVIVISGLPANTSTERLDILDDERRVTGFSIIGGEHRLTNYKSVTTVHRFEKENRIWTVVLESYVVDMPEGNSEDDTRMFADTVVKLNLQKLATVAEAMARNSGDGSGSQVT
T1 sequence (Q9CAJ0 180-511 partner limits assumed): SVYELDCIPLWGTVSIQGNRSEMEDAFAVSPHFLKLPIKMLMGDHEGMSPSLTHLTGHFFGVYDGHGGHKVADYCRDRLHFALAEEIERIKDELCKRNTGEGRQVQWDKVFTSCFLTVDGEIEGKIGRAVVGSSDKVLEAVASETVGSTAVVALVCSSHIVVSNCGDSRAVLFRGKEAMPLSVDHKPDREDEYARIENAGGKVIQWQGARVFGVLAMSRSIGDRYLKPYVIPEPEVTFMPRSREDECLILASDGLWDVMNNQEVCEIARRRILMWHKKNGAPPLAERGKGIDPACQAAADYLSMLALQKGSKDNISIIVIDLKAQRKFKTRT
Procedure: Each ligand was tested at concentrations spanning 7 points between 4 nM and 50 μM in triplicate in a reaction buffer containing 100 mM Tris-HCl-pH7.9, 100 mM NaCl, 30 μg/ml BSA, 0.1% 2-mercaptoethanol, 25 nM ΔN-HAB1, 1 mM 4-methylumbelliferyl phosphate, and different recombinant ABA receptors at 50 nM or 300 nM (for PYL9 or PYL11). The substrate was added ˜20 minutes after the other components had been mixed and fluorescence data collected. Control carrier solvent-only wells were included as a reference and %-activity for tested compounds calculated relative to this control. The dose response data (PP2C activity versus agonist concentration) was fit to a log (inhibitor) vs. response-(variable slope) model using non-linear regression to infer the IC50S, using GraphPad Prism 6.0, to yield the IC50 values shown in FIG. 6.
The potency and selectivity of ligands 2b, 2e-f was established by testing their ability to activate multiple ABA receptor subtypes using the fluorescence based phosphasted assay as outlined in example 2 at a range of concentrations (4 nM to 50 μM). […]
We first explored if replacing the cyclopropyl group with an isopropyl group affects the activity of the ligand against PYR1. Ligands were tested using the fluorescence based PP2C assay described in example 2.

wheat seedlings = test: thermal imaging of leaf temperature (anti-transpirant activity), wheat; format: in vivo, Triticum aesitivum
Procedure: To evaluate the effects of the optimized ligands on transpiration, we performed quantitative thermal imaging of 2 week old wheat seedlings (var. Cal Rojo) after chemical or mock treatments. Each pot contained 15 seedlings and was treated as a single replicate for a total of n=4. Seedlings were treated with 10 mL aerosolized solutions containing compounds of interest dissolved in 0.5% DMSO and 0.05% Silwet-77 (Lehle seeds). Thermal images were collected using a FLIR T62101 camera ˜24 hours post treatment. Average leaf temperatures were obtained by averaging the temperatures measured from between 10-15 ˜1 cm^2 area spots from the 15 plants sowed in each replicate pot.
To gain more detailed comparisons of the potency and persistence of different ABA agonists, we treated wheat seedlings (var. WB9229) with a range of agonist concentrations (mock, 11, 33, 100, 300 μM) and collected leaf temperature data at 24 hour intervals for 5 days. Mock treated samples were analyzed with 10 replicates and chemical treatments with 5 replicates. […] The corrected p-values for treatment effects at all time points is summarized in the inset table and highlighted yellow if a significant increase in leaf temperature was observed.

Q: For `N#Cc1c(C2CC2)cc(CC(=O)NC2(C(=O)O)CCCCC2)cc1C1CC1` [2f, 1-[2-(4-cyano-3,5-dicyclopropylphenyl)acetamido]cyclohexane-1-carboxylic acid], which test concentration (twice the EC50 for germination inhibition) ([1]; Arabidopsis thaliana, printed value is twice the EC50, used as test concentration on mutants, read-out: twice the concentrations determined as its EC50 (inhibition of germination) (converted)) is on record?
A: The test concentration (twice the EC50 for germination inhibition) was 0.06 µM.

Q: And the “fold more active than either QB or AMF4 in seed germination inhibition” value ([1]; in vivo)?
A: The value was > 10 x.

Q: What about the “inhibition of Arabidopsis seed germination (in words)” value ([1]; in vivo) of the same compound?
A: The value was “potently inhibits seed germination”.

Q: And the “anti-transpirant activity (leaf temperature)” value (tomato plants)?
A: Its value is “highly active anti-transpirant in tomato with significantly longer effects than ABA”.

Q: And the “increased potency on PYR1 relative to ABA” value (PYR1)?
A: Its value is ~10 ×.

Q: What about the “anti-transpirant activity (leaf temperature)” value (wheat seedlings; var. Cal Rojo, 50 μM, ~24 hours post treatment) of the same compound?
A: Its value is “highly efficacious anti-transpirant”.

Q: What about the “thermal response, potency and persistence” value (wheat seedlings; var. WB9229, 11, 33, 100, 300 μM, 24 hour intervals for 5 days) of the same compound?
A: The value was “potent and persistent thermal response”.

Reference: patent US12161114B2, “Overpowered ABA receptor agonists” (The Regents of the University of California, priority 2018, dated 2024)
